The results in this text go back to ChEMBL document CHEMBL4373747 (ACS Med Chem Lett, 2020).

Calls of active or inactive are those of the source. The calls are words filed in the database; no cut-off is given here.

One series has as its target Histone deacetylase 3 (Homo sapiens, UniProt O15379). The experiment in a line: Inhibition of recombinant full length human HDAC3 expressed in baculovirus infected Sf9 cells using FAM-RHKK-Ac as substrate incubated for 3 hrs by electrophoretic mobility shift assay. (Mobility shift assays separate free from complexed probe on a gel.)
Series [1] concerns the target T1, Protein deacetylase HDAC6 (Homo sapiens, UniProt Q9UBN7).
T1 sequence (Q9UBN7 whole entry): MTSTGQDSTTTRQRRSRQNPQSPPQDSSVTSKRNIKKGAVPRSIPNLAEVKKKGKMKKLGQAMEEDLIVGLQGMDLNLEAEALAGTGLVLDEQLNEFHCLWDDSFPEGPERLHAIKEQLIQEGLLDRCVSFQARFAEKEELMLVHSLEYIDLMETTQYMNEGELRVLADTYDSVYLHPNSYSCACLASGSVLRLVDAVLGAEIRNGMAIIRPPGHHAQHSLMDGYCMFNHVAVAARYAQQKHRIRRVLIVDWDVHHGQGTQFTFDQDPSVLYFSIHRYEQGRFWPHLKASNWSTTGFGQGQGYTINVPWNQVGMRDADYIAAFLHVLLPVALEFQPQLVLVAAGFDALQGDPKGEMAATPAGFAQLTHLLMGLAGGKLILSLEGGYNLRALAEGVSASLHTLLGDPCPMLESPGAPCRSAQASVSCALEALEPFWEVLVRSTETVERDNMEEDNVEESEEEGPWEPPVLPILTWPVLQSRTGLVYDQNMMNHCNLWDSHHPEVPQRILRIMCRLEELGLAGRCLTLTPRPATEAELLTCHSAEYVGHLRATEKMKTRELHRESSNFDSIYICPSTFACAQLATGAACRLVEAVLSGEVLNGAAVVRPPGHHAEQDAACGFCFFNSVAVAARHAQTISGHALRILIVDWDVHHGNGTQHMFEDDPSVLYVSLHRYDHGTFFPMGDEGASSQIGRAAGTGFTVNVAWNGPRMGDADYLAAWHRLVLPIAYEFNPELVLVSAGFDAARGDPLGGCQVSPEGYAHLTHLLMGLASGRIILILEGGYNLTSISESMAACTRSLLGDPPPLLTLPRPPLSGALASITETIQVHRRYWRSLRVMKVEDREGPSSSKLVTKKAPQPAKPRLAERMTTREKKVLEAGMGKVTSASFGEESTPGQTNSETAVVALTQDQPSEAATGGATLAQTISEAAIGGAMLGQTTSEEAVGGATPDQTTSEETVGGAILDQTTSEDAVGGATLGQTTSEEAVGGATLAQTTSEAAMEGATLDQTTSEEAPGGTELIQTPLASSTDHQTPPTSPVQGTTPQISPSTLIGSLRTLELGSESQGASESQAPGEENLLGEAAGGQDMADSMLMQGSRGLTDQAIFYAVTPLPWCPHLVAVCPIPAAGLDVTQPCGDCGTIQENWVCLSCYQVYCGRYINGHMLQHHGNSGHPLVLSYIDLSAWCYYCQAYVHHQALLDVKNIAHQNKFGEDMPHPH
The experiment in a line: Inhibition of recombinant full length human HDAC6 expressed in baculovirus infected Sf9 cells using FAM-RHKK-Ac as substrate incubated for 5 hrs by electrophoretic mobility shift assay.

Another series deals with T2, Histone deacetylase 11 (Homo sapiens, UniProt Q96DB2).
T2 sequence (Q96DB2 whole entry): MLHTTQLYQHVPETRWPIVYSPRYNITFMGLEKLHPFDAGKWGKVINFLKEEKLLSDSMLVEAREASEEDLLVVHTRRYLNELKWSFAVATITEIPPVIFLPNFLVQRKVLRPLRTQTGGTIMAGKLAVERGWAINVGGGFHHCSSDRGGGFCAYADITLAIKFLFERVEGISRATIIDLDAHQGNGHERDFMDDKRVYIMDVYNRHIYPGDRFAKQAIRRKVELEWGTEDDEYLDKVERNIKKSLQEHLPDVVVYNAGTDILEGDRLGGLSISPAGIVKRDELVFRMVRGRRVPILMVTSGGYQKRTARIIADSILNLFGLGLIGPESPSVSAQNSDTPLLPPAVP
Briefly: Inhibition of recombinant full length human HDAC11 expressed in baculovirus infected Sf9 cells using FAM-RHKK-TFAc as substrate incubated for 17 hrs by electrophoretic mobility shift assay.

In series [2] the target is T1, Protein deacetylase HDAC6. The experiment in a line: Inhibition of recombinant full length human HDAC6 expressed in baculovirus infected Sf9 cells assessed as inhibitory constant using FAM-RHKK-Ac as substrate incubated for 5 hrs by electrophoretic mobility shift assay.
For a further series, the target named is Histone deacetylase 2 (Homo sapiens, UniProt Q92769). Briefly: Inhibition of recombinant full length human HDAC2 expressed in baculovirus infected Sf9 cells using FAM-RHKK-Ac as substrate incubated for 17 hrs by electrophoretic mobility shift assay.
Chain of Histone deacetylase 2 (Q92769 whole entry): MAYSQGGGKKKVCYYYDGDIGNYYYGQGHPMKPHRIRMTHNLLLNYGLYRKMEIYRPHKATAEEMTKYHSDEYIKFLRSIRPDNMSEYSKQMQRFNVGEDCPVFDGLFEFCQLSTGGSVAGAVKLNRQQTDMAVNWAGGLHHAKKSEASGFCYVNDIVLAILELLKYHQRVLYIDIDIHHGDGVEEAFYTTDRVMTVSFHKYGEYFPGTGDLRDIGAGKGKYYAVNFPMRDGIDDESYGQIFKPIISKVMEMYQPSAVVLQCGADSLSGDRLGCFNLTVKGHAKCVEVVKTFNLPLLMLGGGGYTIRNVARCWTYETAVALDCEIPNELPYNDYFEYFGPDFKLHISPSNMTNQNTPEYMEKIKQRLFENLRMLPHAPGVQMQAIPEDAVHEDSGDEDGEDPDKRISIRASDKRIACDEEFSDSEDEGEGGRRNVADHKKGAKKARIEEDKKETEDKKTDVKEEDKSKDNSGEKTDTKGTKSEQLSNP
A further series addresses Histone deacetylase 4 (Homo sapiens, UniProt P56524). The experiment in a line: Inhibition of recombinant full length human HDAC4 expressed in baculovirus infected Sf9 cells using FAM-RHKK-TFAc as substrate incubated for 1.5 hrs by electrophoretic mobility shift assay.
The next series deals with Histone deacetylase 5 (Homo sapiens, UniProt Q9UQL6). The experiment in a line: Inhibition of recombinant full length human HDAC5 expressed in baculovirus infected Sf9 cells using FAM-RHKK-TFAc as substrate incubated for 3 hrs by electrophoretic mobility shift assay.
Chain of Histone deacetylase 5 (Q9UQL6 whole entry): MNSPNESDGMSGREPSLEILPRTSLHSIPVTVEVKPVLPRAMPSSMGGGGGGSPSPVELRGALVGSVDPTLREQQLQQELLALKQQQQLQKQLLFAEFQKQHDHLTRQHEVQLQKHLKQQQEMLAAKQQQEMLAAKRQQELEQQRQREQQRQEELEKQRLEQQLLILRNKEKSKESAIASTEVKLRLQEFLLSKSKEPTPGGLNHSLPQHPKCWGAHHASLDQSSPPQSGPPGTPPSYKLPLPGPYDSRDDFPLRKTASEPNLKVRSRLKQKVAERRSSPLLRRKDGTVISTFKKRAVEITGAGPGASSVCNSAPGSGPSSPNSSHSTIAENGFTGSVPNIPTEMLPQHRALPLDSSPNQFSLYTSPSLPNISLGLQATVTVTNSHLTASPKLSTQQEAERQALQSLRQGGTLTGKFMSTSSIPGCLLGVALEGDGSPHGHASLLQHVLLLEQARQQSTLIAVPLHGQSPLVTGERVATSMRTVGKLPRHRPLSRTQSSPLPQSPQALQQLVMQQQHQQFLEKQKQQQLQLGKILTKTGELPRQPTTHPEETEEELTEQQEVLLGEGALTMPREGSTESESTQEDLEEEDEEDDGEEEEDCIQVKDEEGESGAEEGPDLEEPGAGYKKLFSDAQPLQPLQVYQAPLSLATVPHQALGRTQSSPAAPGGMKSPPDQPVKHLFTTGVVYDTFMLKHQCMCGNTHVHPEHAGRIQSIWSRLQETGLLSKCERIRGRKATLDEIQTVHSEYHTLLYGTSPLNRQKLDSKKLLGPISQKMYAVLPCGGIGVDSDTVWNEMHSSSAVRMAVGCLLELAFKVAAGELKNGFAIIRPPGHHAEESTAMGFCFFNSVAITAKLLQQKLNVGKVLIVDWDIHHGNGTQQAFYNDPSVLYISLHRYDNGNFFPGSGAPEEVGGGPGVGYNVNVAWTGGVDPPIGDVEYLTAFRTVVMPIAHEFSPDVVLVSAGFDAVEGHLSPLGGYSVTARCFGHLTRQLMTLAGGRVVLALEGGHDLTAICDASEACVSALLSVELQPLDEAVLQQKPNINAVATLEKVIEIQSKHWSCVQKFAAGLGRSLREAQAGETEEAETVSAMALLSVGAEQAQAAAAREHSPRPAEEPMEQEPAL
Series [3] concerns MV4-11. Briefly: Induction of apoptosis in human MV4-11 cells assessed as early apoptotic cells at 1 uM incubated for 18 hrs by annexin V FITC and PI based flow cytometry (reference value: 19.46 to 22.17 %). Format: functional. A general note: Flow cytometry measures light scatter and fluorescence of single cells or particles in a stream.
Series [4] has as its system MV4-11. The experiment in a line: Induction of apoptosis in human MV4-11 cells assessed as early apoptotic cells at 0.25 uM incubated for 18 hrs by annexin V FITC and PI based flow cytometry (reference value: 19.46 to 22.17 %). It is filed as functional.
In series [5] the test system is MV4-11. Briefly: Induction of apoptosis in human MV4-11 cells assessed as late apoptotic cells at 2 uM incubated for 18 hrs by annexin V FITC and PI based flow cytometry (reference value: 9.2 to 9.63 %). Format: functional.
The nature of series [6]: Stability in ICR/CD1 mouse hepatocytes assessed as half life at 1 uM measured upto 120 mins by LCMS analysis. It is filed as ADME, cell-based, Hepatocyte. The following applies: 2 h.
A short description of series [7]: Intrinsic clearance in ICR/CD1 mouse hepatocytes at 1 uM measured upto 120 mins by LCMS analysis. Format: ADME, cell-based, Hepatocyte. The settings on record: 2 h.
In a further series the test system is HeLa. The experiment in a line: Cytotoxicity against human HeLa cells assessed as reduction in cell viability incubated for 72 hrs by cell-titer blue assay. It is filed as functional, cell-based.
The target of series [8] is T3, Protein deacetylase HDAC6 (Homo sapiens) (UniProt Q9UBN7).
T3 sequence (whole entry): T1 sequence (Q9UBN7 whole entry)
The experiment in a line: (§1) Inhibition of HDAC6 in human HeLa cells incubated for 15 mins by ELISA. Format: cell-based. A general note: ELISA stands for enzyme-linked immunosorbent assay.

Series [9] deals with T1, Protein deacetylase HDAC6. Described as §1. Format: cell-based.
The target in series [10] is Histone deacetylase (Homo sapiens) (UniProt Q13547+O15379+Q9UBN7+Q92769+Q9UQL6+Q8WUI4+Q9BY41+Q96DB2+P56524+Q9UKV0+Q969S8). The experiment in a line: Inhibition of HDAC in human MV4-11 cells assessed as […] in acetylated histone H3 at 0.1 to 10 uM incubated for 6 hrs by Western blot analysis. Format: cell-based.
Series [11] can be described thus: Oral bioavailability in CD-1 mouse at 20 mg/kg measured upto 24 hrs by LC/MS/MS analysis. It is filed as ADME, organism-based. The following applies: in vivo.

Chain of Histone deacetylase 3 (O15379 whole entry): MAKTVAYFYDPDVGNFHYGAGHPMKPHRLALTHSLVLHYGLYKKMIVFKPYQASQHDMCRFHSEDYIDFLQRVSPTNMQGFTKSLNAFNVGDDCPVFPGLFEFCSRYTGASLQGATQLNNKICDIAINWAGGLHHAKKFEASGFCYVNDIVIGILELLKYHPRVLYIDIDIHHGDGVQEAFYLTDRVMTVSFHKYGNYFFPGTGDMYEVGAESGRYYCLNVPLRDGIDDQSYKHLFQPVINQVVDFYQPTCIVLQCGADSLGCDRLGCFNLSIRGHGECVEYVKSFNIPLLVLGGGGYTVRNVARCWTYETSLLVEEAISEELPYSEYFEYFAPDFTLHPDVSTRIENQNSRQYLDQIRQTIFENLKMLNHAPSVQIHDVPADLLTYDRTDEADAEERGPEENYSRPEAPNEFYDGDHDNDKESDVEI
Chain of Histone deacetylase 4 (P56524 whole entry): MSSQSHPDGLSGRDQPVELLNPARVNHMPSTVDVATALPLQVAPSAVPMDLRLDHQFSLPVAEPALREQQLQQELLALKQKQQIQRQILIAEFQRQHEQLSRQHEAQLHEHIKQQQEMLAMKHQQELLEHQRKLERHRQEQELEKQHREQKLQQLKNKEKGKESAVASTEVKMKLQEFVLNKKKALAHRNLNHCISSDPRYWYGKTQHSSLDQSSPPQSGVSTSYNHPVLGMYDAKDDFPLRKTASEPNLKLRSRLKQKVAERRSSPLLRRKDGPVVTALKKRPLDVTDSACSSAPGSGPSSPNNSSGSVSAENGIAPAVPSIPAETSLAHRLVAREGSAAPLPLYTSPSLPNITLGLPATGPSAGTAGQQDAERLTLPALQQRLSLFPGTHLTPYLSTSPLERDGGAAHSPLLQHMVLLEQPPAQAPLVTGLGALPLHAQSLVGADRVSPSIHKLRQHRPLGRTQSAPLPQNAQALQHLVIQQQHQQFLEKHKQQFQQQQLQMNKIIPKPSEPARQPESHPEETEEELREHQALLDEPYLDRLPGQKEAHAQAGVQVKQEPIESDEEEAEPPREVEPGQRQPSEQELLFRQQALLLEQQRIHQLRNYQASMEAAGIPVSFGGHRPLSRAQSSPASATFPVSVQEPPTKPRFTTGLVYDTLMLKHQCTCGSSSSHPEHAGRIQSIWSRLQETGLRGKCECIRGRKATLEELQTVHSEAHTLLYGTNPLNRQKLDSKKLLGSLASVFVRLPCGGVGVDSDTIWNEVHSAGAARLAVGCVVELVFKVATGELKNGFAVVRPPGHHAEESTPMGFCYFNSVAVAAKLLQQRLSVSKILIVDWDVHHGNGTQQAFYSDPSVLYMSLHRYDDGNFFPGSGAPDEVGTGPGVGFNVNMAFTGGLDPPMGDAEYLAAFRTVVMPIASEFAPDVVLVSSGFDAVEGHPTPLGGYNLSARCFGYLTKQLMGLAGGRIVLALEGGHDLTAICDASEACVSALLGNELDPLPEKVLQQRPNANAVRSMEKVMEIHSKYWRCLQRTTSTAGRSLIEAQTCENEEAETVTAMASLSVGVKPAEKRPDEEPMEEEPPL

Turning to `CC(C)(C)c1ccc(C(=O)Nc2ccc(C(=O)NO)cc2)cc1`, the IC50 (usually the point on the concentration scale where inhibition reaches its midpoint) at Histone deacetylase 3 was 187 nM; in [1], 24.4 nM; on Histone deacetylase 11, more than 1000 nM; at Histone deacetylase 2, more than 1000 nM; at Histone deacetylase 4, more than 1000 nM; at Histone deacetylase 5, more than 1000 nM. In addition, the IC50 in the series on HeLa was 2530 nM; in series [9], 580 nM. Also, in series [2], the Ki (as a rule, the dissociation constant of the complex between target and ligand, obtained from inhibition or displacement) was determined as 35 nM. The Activity in the series on MV4-11 [3] came to 29.78%; in the series with MV4-11 [4], 17.82%; in the series on MV4-11 [5], 30.97%. Further, the t1/2 in [6] was 28.3 min. In [7], this molecule returned a CLH of 49.1 µL/min. The inhibition entry in series [8] is “Dose-dependent effect”. Besides, the inhibition entry in [10] was “Active”. The bioavailability (usually dose-corrected exposure relative to a reference, in per cent) in series [11] stood at 19.8%.
